# From US11001577B2, “Pesticidally active azetidine sulfones amide isoxazoline derivatives” (SYNGENTA PARTICIPATIONS AG, priority 2016, dated 2021)
# Read-outs that look alike come from different tables or passages of the source.
# Tests used:
# Type in all cases: in vivo
# Diabrotica balteata = Diabrotica balteata (corn root worm), maize sprouts sprayed; conditions: 96 h, read-out: effect in at least one of the two categories (mortality or growth inhibition); for percent effect (mortality or growth inhibition) at 200 ppm: application rate 200 ppm, L2 larvae, 4 days after infestation
# Description: Diabrotica balteata (Corn Root Worm)
# Maize sprouts placed onto an agar layer in 24-well microtiter plates were treated with aqueous test solutions prepared from 10,000 ppm DMSO stock solutions by spraying. After drying, the plates were infested with L2 larvae (6 to 10 per well). The samples were assessed for mortality and growth inhibition in comparison to untreated samples 4 days after infestation.
# Euschistus heros = Euschistus heros (neotropical brown stink bug), soybean leaves sprayed; conditions: 120 h, read-out: effect in at least one of the two categories (mortality or growth inhibition); for percent effect (mortality or growth inhibition) at 200 ppm: application rate 200 ppm, N2 nymphs, 5 days after infestation
# Description: Euschistus heros (Neotropical Brown Stink Bug)
# Soybean leaves on agar in 24-well microtiter plates were sprayed with aqueous test solutions prepared from 10,000 ppm DMSO stock solutions. After drying the leaves were infested with N2 nymphs. The samples were assessed for mortality and growth inhibition in comparison to untreated samples 5 days after infestation.
# Myzus persicae = Myzus persicae (green peach aphid) feeding/contact activity; conditions: 144 h
# Description: Myzus persicae (Green Peach Aphid):Feeding/Contact Activity
# (§1) Sunflower leaf discs were placed onto agar in a 24-well microtiter plate and sprayed with aqueous test solutions prepared from 10,000 ppm DMSO stock solutions. After drying, the leaf discs were infested with an aphid population of mixed ages. The samples were assessed for mortality 6 days after infestation.
# Plutella xylostella [1] = experiment: Plutella xylostella (diamond back moth), artificial diet; conditions: 120 h, read-out: effect in at least one of the two categories (mortality or growth inhibition); for percent effect (mortality or growth inhibition) at 200 ppm: application rate 200 ppm, L2 larvae, 5 days after infestation
# Description: Plutella xylostella (Diamond Back Moth)
# (§2) 24-well microtiter plates with artificial diet were treated with aqueous test solutions prepared from 10,000 ppm DMSO stock solutions by pipetting. After drying, the plates were infested with L2 larvae (10 to 15 per well). The samples were assessed for mortality and growth inhibition in comparison to untreated samples 5 days after infestation.
# Spodoptera littoralis [2] = experiment: Spodoptera littoralis (Egyptian cotton leaf worm), cotton leaf discs; conditions: foliar, 72 h; for percent control (mortality, anti-feedant effect or growth inhibition) at 200 ppm: application rate 200 ppm, L1 larvae, 3 days after infestation
# Description: Spodoptera littoralis (Egyptian Cotton Leaf Worm)
# Cotton leaf discs were placed onto agar in 24-well microtiter plates and sprayed with aqueous test solutions prepared from 10,000 ppm DMSO stock solutions. After drying the leaf discs were infested with five L1 larvae. The samples were assessed for mortality, anti-feeding effect, and growth inhibition in comparison to untreated samples 3 days after infestation. Control of Spodoptera littoralis by a test sample is given when at least one of the categories mortality, anti-feedant effect, and growth inhibition is higher than the untreated sample.
# Tetranychus urticae [3] = experiment: Tetranychus urticae (two-spotted spider mite) feeding/contact activity; conditions: 192 h, read-out: mortality on mixed population (mobile stages)
# Description: (§3) Tetranychus urticae (Two-Spotted Spider Mite):Feeding/Contact Activity
# (§4) Bean leaf discs on agar in 24-well microtiter plates were sprayed with aqueous test solutions prepared from 10,000 ppm DMSO stock solutions. After drying the leaf discs were infested with a mite population of mixed ages. The samples were assessed for mortality on mixed population (mobile stages) 8 days after infestation.
# Thrips tabaci [4] = experiment: Thrips tabaci (onion thrips) feeding/contact activity; conditions: 144 h
# Description: (§5) Thrips tabaci (Onion Thrips) Feeding/Contact Activity
# as §1, with “on” for “onto”, “in” for “in a”, “plates” for “plate”, “drying” for “drying,”, “a thrips” for “an aphid”
# Plutella xylostella [5] = experiment: Comparative Example C1: Plutella xylostella feeding/contact activity
# Description: (§6) Compounds of the invention were tested alongside a number of compounds from WO 2013/026931.
# Plutella xylostella (Diamond Back Moth):Feeding/Contact Activity
# as §2, with “(%)” for “and growth inhibition in comparison to untreated samples”, “infestation at the various application rates” for “infestation.”
# Spodoptera littoralis [6] = experiment: Comparative Example C2: Spodoptera littoralis feeding/contact activity; conditions: 3 days after infestation
# Description: as §6
# Spodoptera littoralis (Egyptian Cotton Leaf Worm):Feeding/Contact Activity
# (§7) Cotton leaf discs were placed onto agar in 24-well microtiter plates and sprayed with aqueous test solutions prepared from 10,000 ppm DMSO stock solutions. After drying the leaf discs were infested with five L1 larvae. The samples were assessed for mortality (%) 3 days after infestation at the various application rates.
# Tetranychus urticae [7] = experiment: Comparative Example C3: Tetranychus urticae feeding/contact activity; conditions: mobile stages, 8 days after infestation
# Description: as §6, §3
# as §4, with “mixed population (%) (mobile stages)” for “mixed population (mobile stages)”, “days after infestation at the various application rates.” for “days after infestation.”
# Thrips tabaci [8] = experiment: Comparative Example C4: Thrips tabaci feeding/contact activity; conditions: 6 days after infestation
# Description: as §6, §5
# as §7, with “Sunflower” for “Cotton”, “on” for “onto”, “a thrips population of mixed ages.” for “five L1 larvae.”, “6” for “3”
# [9] = application rate 200 ppm, mixed ages, 6 days after infestation, read-out: mortality
# [10] = application rate 200 ppm, 8 days after infestation
compound,measurement,setting,value
"Cc1cc(C2=NO[C@@](c3cc(Cl)cc(Cl)c3)(C(F)(F)F)C2)ccc1C(=O)NC1CN(S(=O)(=O)N(C)C)C1 [Compound A03, 4-[(5S)-5-(3,5-dichlorophenyl)-5-(trifluoromethyl)-4H-isoxazol-3-yl]-N-[1-(dimethylsulfamoyl)azetidin-3-yl]-2-methyl-benzamide]",percent effect (mortality or growth inhibition) at 200 ppm,Diabrotica balteata,≥ 80%
same,percent effect (mortality or growth inhibition) at 200 ppm,Euschistus heros,≥ 80%
same,mortality at 200 ppm,Myzus persicae; [9],≥ 80%
same,percent effect (mortality or growth inhibition) at 200 ppm,Plutella xylostella [1],≥ 80%
same,"percent control (mortality, anti-feedant effect or growth inhibition) at 200 ppm",Spodoptera littoralis [2],≥ 80%
same,mortality at 200 ppm,Tetranychus urticae [3]; [10],≥ 80%
same,mortality at 200 ppm,Thrips tabaci [4]; [9],≥ 80%
"Cc1cc(C2=NO[C@@](c3cc(Cl)cc(Cl)c3)(C(F)(F)F)C2)ccc1C(=O)NC1CN(S(=O)(=O)C2CC2)C1 [Compound A04, N-(1-cyclopropylsulfonylazetidin-3-yl)-4-[(5S)-5-(3,5-dichlorophenyl)-5-(trifluoromethyl)-4H-isoxazol-3-yl]-2-methyl-benzamide]",percent effect (mortality or growth inhibition) at 200 ppm,Diabrotica balteata,≥ 80%
same,percent effect (mortality or growth inhibition) at 200 ppm,Euschistus heros,≥ 80%
same,percent effect (mortality or growth inhibition) at 200 ppm,Plutella xylostella [1],≥ 80%
same,"percent control (mortality, anti-feedant effect or growth inhibition) at 200 ppm",Spodoptera littoralis [2],≥ 80%
same,mortality at 200 ppm,Tetranychus urticae [3]; [10],≥ 80%
Cc1cc(C2=NOC(c3cc(Cl)cc(Cl)c3)(C(F)(F)F)C2)ccc1C(=O)NC1CN(S(=O)(=O)F)C1 (stereo not drawn) [Compound A06],Plutella xylostella larval average mortality (%),Plutella xylostella [5]; application rate 0.195 ppm,80%
same,Plutella xylostella larval average mortality (%),Plutella xylostella [5]; application rate 0.781 ppm,100%
same,Plutella xylostella larval average mortality (%),Plutella xylostella [5]; application rate 3.12 ppm,100%
same,Plutella xylostella larval average mortality (%),Plutella xylostella [5]; application rate 12.5 ppm,100%
same,Plutella xylostella larval average mortality (%),Plutella xylostella [5]; application rate 50 ppm,100%
same,Plutella xylostella larval average mortality (%),Plutella xylostella [5]; application rate 200 ppm,100%
same,Spodoptera littoralis larval average mortality (%),Spodoptera littoralis [6]; application rate 0.195 ppm,100%
same,Spodoptera littoralis larval average mortality (%),Spodoptera littoralis [6]; application rate 0.781 ppm,100%
same,Spodoptera littoralis larval average mortality (%),Spodoptera littoralis [6]; application rate 3.12 ppm,100%
same,Spodoptera littoralis larval average mortality (%),Spodoptera littoralis [6]; application rate 12.5 ppm,100%
same,Spodoptera littoralis larval average mortality (%),Spodoptera littoralis [6]; application rate 50 ppm,100%
same,Spodoptera littoralis larval average mortality (%),Spodoptera littoralis [6]; application rate 200 ppm,100%
same,Tetranychus urticae mixed population average mortality (%),Tetranychus urticae [7]; application rate 0.195 ppm,0%
same,Tetranychus urticae mixed population average mortality (%),Tetranychus urticae [7]; application rate 0.781 ppm,100%
same,Tetranychus urticae mixed population average mortality (%),Tetranychus urticae [7]; application rate 3.12 ppm,100%
same,Tetranychus urticae mixed population average mortality (%),Tetranychus urticae [7]; application rate 12.5 ppm,100%
same,Tetranychus urticae mixed population average mortality (%),Tetranychus urticae [7]; application rate 50 ppm,100%
same,Tetranychus urticae mixed population average mortality (%),Tetranychus urticae [7]; application rate 200 ppm,100%
same,Thrips tabaci mixed population average mortality (%),Thrips tabaci [8]; application rate 0.195 ppm,0%
same,Thrips tabaci mixed population average mortality (%),Thrips tabaci [8]; application rate 0.781 ppm,100%
same,Thrips tabaci mixed population average mortality (%),Thrips tabaci [8]; application rate 3.12 ppm,100%
same,Thrips tabaci mixed population average mortality (%),Thrips tabaci [8]; application rate 12.5 ppm,100%
same,Thrips tabaci mixed population average mortality (%),Thrips tabaci [8]; application rate 50 ppm,100%
same,Thrips tabaci mixed population average mortality (%),Thrips tabaci [8]; application rate 200 ppm,100%
"Cc1cc(C2=NO[C@@](c3cc(Cl)cc(C(F)(F)F)c3)(C(F)(F)F)C2)ccc1C(=O)NC1CN(S(=O)(=O)F)C1 [Compound A10, 3-[[4-[(5S)-5-[3-chloro-5-(trifluoromethyl)phenyl]-5-(trifluoromethyl)-4H-isoxazol-3-yl]-2-methyl-benzoyl]amino]azetidine-1-sulfonyl fluoride]",percent control (mortality or growth inhibition) at 200 ppm,Diabrotica balteata,≥ 80%
same,percent control (mortality or growth inhibition) at 200 ppm,Euschistus heros,≥ 80%
same,mortality at 200 ppm,Myzus persicae,≥ 80%
same,percent control (mortality or growth inhibition) at 200 ppm,Plutella xylostella [1],≥ 80%
same,mortality at 200 ppm,"Spodoptera littoralis [2]; read-out: control (mortality, anti-feedant effect, growth inhibition)",≥ 80%
same,mortality at 200 ppm,Tetranychus urticae [3],≥ 80%
same,mortality at 200 ppm,Thrips tabaci [4],≥ 80%
"Cc1cc(C2=NO[C@@](c3cc(Cl)c(F)c(Cl)c3)(C(F)(F)F)C2)ccc1C(=O)NC1CN(S(N)(=O)=O)C1 [Compound A12, 4-[(5S)-5-(3,5-dichloro-4-fluoro-phenyl)-5-(trifluoromethyl)-4H-isoxazol-3-yl]-2-methyl-N-(1-sulfamoylazetidin-3-yl)benzamide]",percent effect (mortality or growth inhibition) at 200 ppm,Diabrotica balteata,≥ 80%
same,percent effect (mortality or growth inhibition) at 200 ppm,Euschistus heros,≥ 80%
same,mortality at 200 ppm,Myzus persicae; [9],≥ 80%
same,percent effect (mortality or growth inhibition) at 200 ppm,Plutella xylostella [1],≥ 80%
same,"percent control (mortality, anti-feedant effect or growth inhibition) at 200 ppm",Spodoptera littoralis [2],≥ 80%
same,mortality at 200 ppm,Tetranychus urticae [3]; [10],≥ 80%
same,mortality at 200 ppm,Thrips tabaci [4]; [9],≥ 80%
"Cc1cc(C2=NO[C@@](c3cc(Cl)c(F)c(Cl)c3)(C(F)(F)F)C2)ccc1C(=O)NC1CN(S(=O)(=O)N(CC(F)(F)F)CC(F)(F)F)C1 [Compound A13, N-[1-[bis(2,2,2-trifluoroethyl)sulfamoyl]azetidin-3-yl]-4-[(5S)-5-(3,5-dichloro-4-fluoro-phenyl)-5-(trifluoromethyl)-4H-isoxazol-3-yl]-2-methyl-benzamide]",percent effect (mortality or growth inhibition) at 200 ppm,Diabrotica balteata,≥ 80%
same,mortality at 200 ppm,Myzus persicae; [9],≥ 80%
same,percent effect (mortality or growth inhibition) at 200 ppm,Plutella xylostella [1],≥ 80%
same,"percent control (mortality, anti-feedant effect or growth inhibition) at 200 ppm",Spodoptera littoralis [2],≥ 80%
same,mortality at 200 ppm,Tetranychus urticae [3]; [10],≥ 80%
same,mortality at 200 ppm,Thrips tabaci [4]; [9],≥ 80%
"Cc1cc(C2=NO[C@@](c3cc(Cl)c(F)c(Cl)c3)(C(F)(F)F)C2)ccc1C(=O)NC1CN(S(=O)(=O)NCC(F)(F)F)C1 [Compound A14, 4-[(5S)-5-(3,5-dichloro-4-fluoro-phenyl)-5-(trifluoromethyl)-4H-isoxazol-3-yl]-2-methyl-N-[1-(2,2,2-trifluoroethylsulfamoyl)azetidin-3-yl]benzamide]",percent effect (mortality or growth inhibition) at 200 ppm,Diabrotica balteata,≥ 80%
same,percent effect (mortality or growth inhibition) at 200 ppm,Euschistus heros,≥ 80%
same,mortality at 200 ppm,Myzus persicae; [9],≥ 80%
same,percent effect (mortality or growth inhibition) at 200 ppm,Plutella xylostella [1],≥ 80%
same,"percent control (mortality, anti-feedant effect or growth inhibition) at 200 ppm",Spodoptera littoralis [2],≥ 80%
same,mortality at 200 ppm,Tetranychus urticae [3]; [10],≥ 80%
same,mortality at 200 ppm,Thrips tabaci [4]; [9],≥ 80%
"Cc1cc(C2=NO[C@@](c3cc(Cl)cc(C(F)(F)F)c3)(C(F)(F)F)C2)ccc1C(=O)NC1CN(S(=O)(=O)OCC(F)(F)F)C1 [Compound A18, 2,2,2-trifluoroethyl 3-[[4-[(5S)-5-[3-chloro-5-(trifluoromethyl)phenyl]-5-(trifluoromethyl)-4H-isoxazol-3-yl]-2-methyl-benzoyl]amino]azetidine-1-sulfonate]",percent effect (mortality or growth inhibition) at 200 ppm,Diabrotica balteata,≥ 80%
same,percent effect (mortality or growth inhibition) at 200 ppm,Euschistus heros,≥ 80%
same,percent effect (mortality or growth inhibition) at 200 ppm,Plutella xylostella [1],≥ 80%
same,"percent control (mortality, anti-feedant effect or growth inhibition) at 200 ppm",Spodoptera littoralis [2],≥ 80%
same,mortality at 200 ppm,Tetranychus urticae [3]; [10],≥ 80%
same,mortality at 200 ppm,Thrips tabaci [4]; [9],≥ 80%
